Laboratory results from patent US12138322B2, “Method of preventing the development of melanoma” (Vector Vitale IP LLC, priority 2019, dated 2024).
Marks after values point to notes of the source that are not given here.

Tests used:
B16 melanoma cells = assay: Experimental model of hematogenous B16 melanoma metastasis (lungs), intravenous administration; type: in vivo, C57Bl mice; details: IV 60 μg/mouse; for Number of animals in the group with metastases / Number of metastases/mouse (M ± m) / Volume of metastases/mouse (M ± m): lungs at day 26
Method: An experimental model of hematogenous metastasis was used in the experiment which allowed for the inoculation of B16 melanoma cells. The characteristic of these cells is given in Example 1. The cells were cultured in vitro under standard conditions. For transplantation, tumor cells were removed from the substrate with 0.02% Versene solution and the suspension cellularity and viability were evaluated in the presence of trypan blue in a hemocytometer and the suspension was adjusted to a concentration of […]. Melanoma cells were injected intracutaneously (IC) in 0.05 ml of suspension (0.5×10^6 cells/mouse) into the back area of the animal. Part of the coat on the back of mice was removed with a depilatory cream at 24 hours before tumor cell inoculation. Cells isolated from B16 mouse melanoma were used in the experiment. Cells were cultured in vitro under standard conditions. For inoculation, tumor cells were removed from the substrate with 0.02% Versene solution. The cellularity and viability of the obtained cell suspension were evaluated with a hemocytometer in presence of a trypan blue. Cell concentration was adjusted with saline to 1×10^6 cells/ml. Melanoma cells were injected IV in 0.2 ml of suspension (0.2×10^6 cells/mouse) into the lateral tail vein.
^64Zne(Asp)2 was dissolved in deuterium-depleted water. The composition was injected intravenously using a microinjection syringe at a dose of 60 μg of ^64Zne/mouse: two injections at a dose of 30 μg/mouse, each in a volume of 0.3 ml (0.6 ml in total), for 4 hours. The injections were given every other day for 10 days (5 injections in total). The first injection of the inventive composition was given 45 minutes or 24 hours after inoculation of tumor cells. At day 26 after IV injection of tumor cells the lungs were excised from all animals in each group and the number and volume of metastases were then determined. C57Bl mice (8 mice per group) at the age of 12-14 weeks, weighing 25-27 g were used in the experiment. The conditions in which animals were maintained are described in Example 1 above.
The ^64Zne(Asp)2 composition was injected intravenously into the animal's lateral tail vein using a Micro-Fine Plus microinjection syringe (Becton Dickinson). The injection site was cleaned with 96% ethanol.
The animals were divided into experimental groups as follows: • Group No. 1: control group, mice injected IV with B16 melanoma cells+IV injection of the solvent (deuterium-depleted water); • Group No. 2: mice injected IV with B16 melanoma cells+IV injection of ^64Zne(Asp)2 24 hours after the tumor cells were inoculated; • Group No. 3: mice injected IV with B16 melanoma cells+IV injection of ^64Zne(Asp)2 45 minutes after the tumor cells were inoculated
On day 26 after IV injection of tumor cells the lungs were excised from all animals in each group and the number and volume of metastases were then determined.
The volume of metastases was calculated using the following formula for the volume of a sphere:
V= 4/3×πr^3, where V is the metastasis volume (mm^3); r is the metastasis radius (mm).

melanoma = assay: Simultaneous intratumoral and intravenous administration (data not shown); type: in vivo
Method: A possibility of simultaneous intratumoral and intravenous administration of the composition comprising 64Zne(Asp)2 was assessed in additional experiments (data not shown).

[1] = first injection 45 min after tumor cells were inoculated
[2] = first injection 24 hours after tumor cells were inoculated

In the case of `N[C@@H](CC(=O)[O-])C(=O)[O-].[Zn+2]` [^64Zne(Asp)2, Zinc L-aspartate], the “number and volume of metastases vs. control” value (B16 melanoma cells; 45 min or 24 hours after inoculation) is reported as “statistically significant decrease”, the “Number of animals in the group with metastases” value (B16 melanoma cells; [1]) is reported as 75% and the “Number of metastases/mouse (M ± m)” value (B16 melanoma cells; [1]) is reported as 4 ± 2. For the same compound, the “Volume of metastases/mouse (M ± m)” value (B16 melanoma cells; [1]) was 2.5 ± 1.7* mm^3, the “Number of animals in the group with metastases” value (B16 melanoma cells; [2]) was 75% and the “Number of metastases/mouse (M ± m)” value (B16 melanoma cells; [2]) was 6.4 ± 2.5. The “Volume of metastases/mouse (M ± m)” value (B16 melanoma cells; [2]) was 3.3 ± 2* mm^3 and the “suppression of the metastatic process (tumor size, surviving animals, number of metastases), words” value (melanoma) was “confirmed the efficacy”.
